Assays:
Type in all cases: in vivo
[1] = system: ABUTILON THEOPHRASTI, MEDIC.; assay: Postemergence herbicidal evaluation, ABUTH (Velvetleaf); conditions: rated four to five weeks after treatment, averaged
Method: (§1) In the tests, seedling plants are grown in jiffy flats for about two weeks. The test compounds are dispersed in 50/50 acetone/water mixtures containing 0.5% TWEEN®20, a polyoxyethylene sorbitan monolaurate surfactant of Atlas Chemical Industries, […] to the plants through a spray nozzle operating at 40 psi for a predetermined time. After spraying, the plants are placed on greenhouse benches and are cared for in the usual manner, commensurate with conventional greenhouse practices. From four to five weeks after treatment, the seedling plants are examined and rated according to the rating system set forth below. Where more than one test is involved for a given compound, the data are averaged.
(§2) Plant species employed in these evaluations are reported by header abbreviation, common name and scientific name.
(§3) Results of herbicide evaluation are expressed on a rating scale (0-9). The scale is based upon a visual observation of plant stand, vigor, malformation, size, chlorosis and overall plant appearance as compared with a control.

IPOMOEA SPP. = assay: Postemergence herbicidal evaluation, IPOSS (Morningglory spp.); conditions: rated four to five weeks after treatment, averaged
Method: as §1, §2, §3

SAGITTARIA PYGMAEA, L. = assay: Preemergence weed control under flooded paddy conditions, SAGPY (Arrowhead (Pygmaea)); conditions: preemergence, 3-4 weeks after treatment
Method: as §3
Preemergence herbicidal activity under flooded paddy conditions is determined as follows: plant seeds or propagating organs are planted in the top 0.5 cm of silt loam soil in 32 oz. plastic containers with a diameter of 10.5 cm and no drainage holes. Water is added to these containers and maintained at 1.5 to 3 cm above the soil surface for the duration of the experiment. […] The treated containers are placed on greenhouse benches and cared for according to normal greenhouse procedures.- Three to four weeks after treatment the test is terminated and each container is examined and herbicidal effect rated according to the rating system provided in Example 40. The compounds evaluated are reported by compound number given in Example 40.
(§4) Plant species employed in this example are reported by header abbreviation, common name and scientific name.

[2] = system: ORYZA SATIVA, L. TEBONNET; assay: Rice tolerance to post-transplant applications under flooded paddy conditions, ORYSAT (Rice, Tebonnet); conditions: post-transplant rice, 3-4 weeks after treatment
Method: as §3
The tolerance of transplanted rice to post-transplanted herbicide applications is determined as follows: two ten-day-old rice seedlings (CV. Tebonnet) are transplanted into a silt loam soil in 32 oz. plastic containers with a diameter of 10.5 cm and no drainage holes. After transplanting the containers are flooded and the water level is maintained at 1.5 to 3 cm above the soil surface. […] The treated containers are placed on greenhouse benches, watered such that the water level is maintained as stated above, and cared for according to normal greenhouse procedures. Three to four weeks after treatment the test is terminated and each container is examined and herbicidal effect rated according to the rating system provided in Example 40. The compounds evaluated are reported by compound number given in Example 40.
as §4

Row | SMILES | ABUTH, herbicide rating (0-9) ([1]; Rate 0.125 kg/ha) | ABUTH, herbicide rating (0-9) ([1]; Rate 0.250 kg/ha) | ABUTH, herbicide rating (0-9) ([1]; Rate 0.500 kg/ha) | IPOSS, herbicide rating (0-9) (IPOMOEA SPP.; Rate 0.125 kg/ha) | IPOSS, herbicide rating (0-9) (IPOMOEA SPP.; Rate 0.250 kg/ha) | IPOSS, herbicide rating (0-9) (IPOMOEA SPP.; Rate 0.500 kg/ha) | Herbicidal effect rating, SAGPY (SAGITTARIA PYGMAEA, L.; 0.063 kg/ha) | Herbicidal effect rating, SAGPY (SAGITTARIA PYGMAEA, L.; 0.125 kg/ha) | Herbicidal effect rating, SAGPY (SAGITTARIA PYGMAEA, L.; 0.250 kg/ha) | Herbicidal effect rating, SAGPY (SAGITTARIA PYGMAEA, L.; 0.500 kg/ha) | Herbicidal effect rating, ORYSAT ([2]; 0.063 kg/ha) | Herbicidal effect rating, ORYSAT ([2]; 0.125 kg/ha) | Herbicidal effect rating, ORYSAT ([2]; 0.250 kg/ha) | Herbicidal effect rating, ORYSAT ([2]; 0.500 kg/ha)
1 | COC(=O)Cn1c(=O)n(C)c(=O)n(-c2cc(Oc3ccc(Cl)c(C)c3Cl)ccc2[N+](=O)[O-])c1=O [Compound 20, Methyl 3-{5-[(2,4-dichloro-m-tolyl)oxy]-2-nitrophenyl}tetrahydro-5-methyl-2,4,6-trioxo-s-triazine-1(2H)-acetate] | 9.0 | 9.0 | 9.0 | 9.0 | 9.0 | 9.0 | 0.0 | 0.0 | 0.0 | 0.0 | 2.0 | 3.0 | 3.0 | 4.0
2 | COC(=O)Cn1c(=O)n(C)c(=O)n(-c2cc(Oc3ccc(Cl)cc3F)ccc2[N+](=O)[O-])c1=O [Compound 23, Methyl 3-[5-(4-chloro-2-fluorophenoxy)-2-nitrophenyl]tetrahydro-5-methyl-2,4,6-trioxo-s-triazine-1(2H)-acetate] |  |  |  |  |  |  | 0.0 | 0.0 | 0.0 | 0.0 | 2.0 | 2.0 | 3.0 | 3.0
3 | COC(=O)Cn1c(=O)n(C)c(=O)n(-c2cc(Oc3ccc(Cl)c(Cl)c3Cl)ccc2[N+](=O)[O-])c1=O [Compound 26, Methyl 3-[2-nitro-5-(2,3,4-trichlorophen-oxy)phenyl]tetrahydro-5-methyl-2,4,6-tri-oxo-s-triazine-1(2H)-acetate] |  |  |  |  |  |  | 0.0 | 0.0 | 0.0 | 0.0 | 2.0 | 2.0 | 3.0 | 3.0
